Data as given in ChEMBL document CHEMBL1125048, “Affinity of 2-(tetrahydroisoquinolin-2-ylmethyl)- and 2-(isoindolin-2-ylmethyl)imidazolines for alpha-adrenoceptors. Differential affinity of imidazolines for the [3H]idazoxan-labeled alpha 2-adrenoceptor vs the [3H]yohimbine-labeled site” (J Med Chem, 1990).

Tests used:
[1] = biological target: T1, Adrenergic receptor alpha-2 (Rattus norvegicus, UniProt P22086+P19328+P22909); experiment: Binding affinity was determined against alpha-2 adrenergic receptor of rat cerebral cortex using [3H]idazoxan as radioligand; format: tissue-based
T1 sequence (P22086 whole entry): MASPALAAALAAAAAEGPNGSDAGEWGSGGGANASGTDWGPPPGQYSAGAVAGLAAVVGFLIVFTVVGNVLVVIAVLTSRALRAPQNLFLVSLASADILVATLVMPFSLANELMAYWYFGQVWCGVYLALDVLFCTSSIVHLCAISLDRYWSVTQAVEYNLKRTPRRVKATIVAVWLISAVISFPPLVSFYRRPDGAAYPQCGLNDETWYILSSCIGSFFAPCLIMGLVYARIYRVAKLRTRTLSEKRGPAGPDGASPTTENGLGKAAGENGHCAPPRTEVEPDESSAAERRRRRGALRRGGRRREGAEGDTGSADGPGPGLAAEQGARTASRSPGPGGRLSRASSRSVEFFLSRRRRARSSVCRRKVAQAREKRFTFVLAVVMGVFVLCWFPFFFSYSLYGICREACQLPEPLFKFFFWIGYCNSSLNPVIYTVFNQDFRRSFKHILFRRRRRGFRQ
T1 sequence (P19328 whole entry): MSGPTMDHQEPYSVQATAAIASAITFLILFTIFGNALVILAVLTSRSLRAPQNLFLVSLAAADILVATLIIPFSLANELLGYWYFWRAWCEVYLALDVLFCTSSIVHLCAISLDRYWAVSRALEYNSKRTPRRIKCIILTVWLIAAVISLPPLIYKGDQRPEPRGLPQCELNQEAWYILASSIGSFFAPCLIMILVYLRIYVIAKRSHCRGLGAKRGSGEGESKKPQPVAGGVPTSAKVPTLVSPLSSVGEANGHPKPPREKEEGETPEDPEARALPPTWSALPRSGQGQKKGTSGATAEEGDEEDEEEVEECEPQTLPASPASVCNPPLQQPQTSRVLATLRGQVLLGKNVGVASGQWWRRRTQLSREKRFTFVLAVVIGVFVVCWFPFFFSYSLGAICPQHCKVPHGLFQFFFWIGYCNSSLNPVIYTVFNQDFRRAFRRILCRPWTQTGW
T1 sequence (P22909 whole entry): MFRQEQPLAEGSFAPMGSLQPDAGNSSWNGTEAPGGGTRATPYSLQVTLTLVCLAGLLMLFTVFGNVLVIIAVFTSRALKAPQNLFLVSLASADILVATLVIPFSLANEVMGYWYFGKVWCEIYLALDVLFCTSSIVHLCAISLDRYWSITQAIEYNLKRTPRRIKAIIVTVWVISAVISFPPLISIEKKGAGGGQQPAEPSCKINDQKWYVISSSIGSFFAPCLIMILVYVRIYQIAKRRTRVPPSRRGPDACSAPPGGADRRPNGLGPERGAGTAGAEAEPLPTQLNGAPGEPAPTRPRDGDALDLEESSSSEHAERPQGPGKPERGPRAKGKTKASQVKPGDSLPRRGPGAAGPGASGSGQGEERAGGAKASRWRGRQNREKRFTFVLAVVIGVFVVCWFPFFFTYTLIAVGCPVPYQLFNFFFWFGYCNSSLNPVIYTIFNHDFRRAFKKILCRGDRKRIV

[2] = biological target: T2, Adrenergic receptor alpha-2 (Rattus norvegicus) (UniProt P22086+P19328+P22909); experiment: Selectivity ratio is the antilog of the [3H]-yohimbine pKi minus the [3H]prazosin pKi; format: protein assay
[3] = biological target: T2, Adrenergic receptor alpha-2 (Rattus norvegicus); experiment: Antilog of the [3H]-idazoxan pKi minus the [3H]yohimbine pKi was determined; format: protein assay
[4] = biological target: T1, Adrenergic receptor alpha-2; experiment: Binding affinity was determined against alpha-2 adrenergic receptor of rat cerebral cortex using [3H]yohimbine as radioligand; format: tissue-based
[5] = biological target: T3, Adrenergic receptor alpha-1 (Rattus norvegicus, UniProt P15823+P23944+P43140); experiment: Binding affinity determined to alpha-1 adrenergic receptor of rat cerebral cortex using [3H]prazosin as radioligand; format: tissue-based
T3 sequence (P15823 whole entry): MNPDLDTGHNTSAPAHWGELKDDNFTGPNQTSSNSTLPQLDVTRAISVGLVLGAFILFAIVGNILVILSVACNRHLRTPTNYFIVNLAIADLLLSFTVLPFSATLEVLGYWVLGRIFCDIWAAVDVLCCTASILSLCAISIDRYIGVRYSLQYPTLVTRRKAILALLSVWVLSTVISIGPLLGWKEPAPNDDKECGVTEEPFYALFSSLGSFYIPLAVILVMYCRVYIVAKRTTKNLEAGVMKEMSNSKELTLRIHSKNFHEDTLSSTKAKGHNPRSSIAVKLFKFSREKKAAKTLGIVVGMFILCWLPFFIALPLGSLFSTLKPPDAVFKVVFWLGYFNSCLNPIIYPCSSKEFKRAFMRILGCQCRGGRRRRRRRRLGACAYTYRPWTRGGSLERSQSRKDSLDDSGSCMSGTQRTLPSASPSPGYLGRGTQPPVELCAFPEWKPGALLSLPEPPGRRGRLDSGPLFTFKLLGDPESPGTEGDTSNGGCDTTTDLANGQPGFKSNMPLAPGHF
T3 sequence (P23944 whole entry): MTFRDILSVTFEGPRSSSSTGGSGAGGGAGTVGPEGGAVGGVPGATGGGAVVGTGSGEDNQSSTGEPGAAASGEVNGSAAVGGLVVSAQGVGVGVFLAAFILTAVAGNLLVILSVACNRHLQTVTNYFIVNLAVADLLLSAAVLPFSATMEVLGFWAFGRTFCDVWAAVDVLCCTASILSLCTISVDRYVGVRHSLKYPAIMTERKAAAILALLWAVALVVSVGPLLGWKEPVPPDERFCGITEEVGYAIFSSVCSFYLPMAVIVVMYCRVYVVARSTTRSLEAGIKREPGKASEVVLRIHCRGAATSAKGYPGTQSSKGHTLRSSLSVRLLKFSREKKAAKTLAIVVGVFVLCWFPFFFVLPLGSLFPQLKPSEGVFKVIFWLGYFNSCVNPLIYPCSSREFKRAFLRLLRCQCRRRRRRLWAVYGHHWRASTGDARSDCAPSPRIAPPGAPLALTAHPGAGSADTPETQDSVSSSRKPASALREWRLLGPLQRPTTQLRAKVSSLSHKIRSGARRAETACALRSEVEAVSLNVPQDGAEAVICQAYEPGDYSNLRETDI
T3 sequence (P43140 whole entry): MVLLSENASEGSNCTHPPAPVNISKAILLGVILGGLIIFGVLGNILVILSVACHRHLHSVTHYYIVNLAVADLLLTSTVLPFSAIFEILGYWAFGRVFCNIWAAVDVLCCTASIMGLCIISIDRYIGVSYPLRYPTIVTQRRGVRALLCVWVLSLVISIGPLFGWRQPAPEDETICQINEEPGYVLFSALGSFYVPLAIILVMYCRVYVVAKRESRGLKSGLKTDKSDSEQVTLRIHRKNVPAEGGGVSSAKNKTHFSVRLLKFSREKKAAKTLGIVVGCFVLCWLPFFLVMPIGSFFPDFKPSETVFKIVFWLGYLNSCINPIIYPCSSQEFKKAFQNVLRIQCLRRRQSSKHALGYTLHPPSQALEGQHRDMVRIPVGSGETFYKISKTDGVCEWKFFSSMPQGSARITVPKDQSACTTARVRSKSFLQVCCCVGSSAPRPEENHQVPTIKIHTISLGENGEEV

[6] = biological target: T1, Adrenergic receptor alpha-2; experiment: Binding affinity to alpha-2 adrenergic receptor of rat cerebral cortex assayed using [3H]yohimbine as radioligand; format: tissue-based
[7] = biological target: T1, Adrenergic receptor alpha-2; experiment: Binding affinity to the alpha-2 adrenergic receptor of rat cerebral cortex assayed using [3H]idazoxan as radioligand; format: tissue-based

Log Ki [1]	Selectivity ratio [2]	Ratio [3]	Log Ki [4]	Log Ki [5]	Log Ki [6]	Log Ki [7]	Compound
-8.07	30	14	-6.91	-5.43			Cl.Cl.c1ccc2c(c1)CN(CC1=NCCN1)C2
				-5.14	-7.19	-7.32	CC1c2ccccc2CCN1CC1=NCCN1.Cl.Cl (stereo not drawn)
				< -5	-6.42	-7.67	Cl.Cl.Clc1ccc2c(c1Cl)CCN(CC1=NCCN1)C2
				< -5	-6.9	-7.38	CC1Cc2ccccc2CN1CC1=NCCN1.Cl.Cl (stereo not drawn)
				-5.2	-6.74	-7.62	CC1c2cccc(Cl)c2CCN1CC1=NCCN1.Cl.Cl (stereo not drawn)
				-5.55	-7.48	-8.39	Cl.Cl.Fc1cccc2c1CCN(CC1=NCCN1)C2
				-5.26	-6.57	-7.38	Cc1cccc2c1CCN(CC1=NCCN1)C2.Cl.Cl
				-4.8	-7.51	-7.8	COc1ccc(OC)c2c1CCN(CC1=NCCN1)C2.Cl.Cl
				< -5	-6.29	-7.2	COc1cc2c(c(OC)c1)CN(CC1=NCCN1)CC2.Cl.Cl
				< -5	-5.97	-6.41	C=CCC1c2ccccc2CCN1CC1=NCCN1.Cl.Cl (stereo not drawn)
-6.24	28	0.6	-6.44	< -5			COc1ccc2c(c1OC)CCN(CC1=NCCN1)C2.Cl.Cl
				< -5	-6.52	-7.68	Cl.Cl.Clc1ccc2c(c1Cl)CN(CC1=NCCN1)CC2
-8.23	7	36	-6.67	-5.8			Cl.Cl.Clc1cccc2c1CN(CC1=NCCN1)CC2
				< -5	-6.16	-6.31	CCC1c2ccccc2CCN1CC1=NCCN1.Cl.Cl (stereo not drawn)
-6.83	15	4	-6.18	< -5			Cl.Cl.Clc1ccc2c(c1)CCN(CC1=NCCN1)C2
				-6.05	-7.71	-8.38	Cl.Cl.Clc1cccc2c1CN(CC1=NCCN1)C2
				-4.72	-7.07	-8	COc1cccc2c1CCN(CC1=NCCN1)C2.Cl.Cl
				< -5	-6	-6.68	CC1(C)c2ccccc2CCN1CC1=NCCN1.Cl.Cl
				< -5	-5.87	-6.13	COc1cc2c(cc1OC)CN(CC1=NCCN1)CC2.Cl.Cl
-7.02	332	0.2	-7.71	-5.19			COc1ccc(OC)c2c1CCN(CC1=NCCN1)C2C.Cl.Cl (stereo not drawn)
				-5.5	-7.14	-8.12	Cl.Cl.Clc1ccc(Cl)c2c1CCN(CC1=NCCN1)C2
				-5.68	-7.65	-7.8	Cl.Cl.Clc1cccc2c1CCN(CC1=NCCN1)C2
				< -5	-6.13	-7.14	Cl.Cl.O=[N+]([O-])c1cccc2c1CCN(CC1=NCCN1)C2
				-5.5	-7.25	-8.27	Cl.Cl.Fc1cccc2c1CN(CC1=NCCN1)CC2
				< -5	-6.17	-6.99	Cl.Nc1cccc2c1CCN(CC1=NCCN1)C2
				-5.67	-6.32	-7.77	Cl.Cl.c1ccc2c(c1)CCN(CC1=NCCN1)C2
